From ChEMBL document CHEMBL3988442, “University of Dundee, Small-Polar-MMV Screening Library” (2021)
Values joined by “and” are separate entries in the source; they are usually repeats but may differ in a detail not shown here. Equal values may be shown once.

Legend:
[1] = molecular target: Polyketide synthase Pks13 (Mycobacterium tuberculosis (strain ATCC 25618 / H37Rv), UniProt I6X8D2); assay: Mycobacterium tuberculosis Polyketide synthase 13 Thioesterase (PKS13); assay type: functional
Lysine--tRNA ligase = Lysine--tRNA ligase (Plasmodium falciparum (isolate 3D7), UniProt Q8IDJ8); assay: Pf-KRS-1 (Lysyl-RNA Synthetase-1, KRS-1, cytosolic KRS) from Plasmodium falciparum. Inhibitor assay, 384 well plate, luminescence read.; assay type: functional
Lysine--tRNA ligase, sequence (Q8IDJ8 whole entry): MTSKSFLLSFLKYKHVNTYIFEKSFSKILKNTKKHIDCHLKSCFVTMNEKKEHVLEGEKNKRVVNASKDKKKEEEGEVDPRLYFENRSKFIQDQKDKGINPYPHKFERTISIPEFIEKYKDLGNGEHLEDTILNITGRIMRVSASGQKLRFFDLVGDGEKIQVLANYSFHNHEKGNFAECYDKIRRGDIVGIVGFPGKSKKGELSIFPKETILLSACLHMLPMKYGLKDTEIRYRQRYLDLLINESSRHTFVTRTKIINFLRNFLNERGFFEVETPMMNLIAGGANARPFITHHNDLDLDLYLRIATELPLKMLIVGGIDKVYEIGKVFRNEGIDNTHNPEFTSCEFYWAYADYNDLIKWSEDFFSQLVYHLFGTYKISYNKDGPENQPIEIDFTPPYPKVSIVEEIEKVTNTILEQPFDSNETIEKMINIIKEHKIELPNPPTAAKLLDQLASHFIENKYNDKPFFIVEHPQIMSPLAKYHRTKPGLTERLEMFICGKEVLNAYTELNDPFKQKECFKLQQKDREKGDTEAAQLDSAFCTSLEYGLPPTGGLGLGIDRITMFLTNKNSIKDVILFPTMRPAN

Histidine--tRNA ligase = molecular target: T1, Histidine--tRNA ligase (Leishmania infantum, UniProt A4I591); assay: Leishmania infantum Histidine tRNA synthetase (LdHisRS); assay type: functional
T1 sequence (A4I591 whole entry): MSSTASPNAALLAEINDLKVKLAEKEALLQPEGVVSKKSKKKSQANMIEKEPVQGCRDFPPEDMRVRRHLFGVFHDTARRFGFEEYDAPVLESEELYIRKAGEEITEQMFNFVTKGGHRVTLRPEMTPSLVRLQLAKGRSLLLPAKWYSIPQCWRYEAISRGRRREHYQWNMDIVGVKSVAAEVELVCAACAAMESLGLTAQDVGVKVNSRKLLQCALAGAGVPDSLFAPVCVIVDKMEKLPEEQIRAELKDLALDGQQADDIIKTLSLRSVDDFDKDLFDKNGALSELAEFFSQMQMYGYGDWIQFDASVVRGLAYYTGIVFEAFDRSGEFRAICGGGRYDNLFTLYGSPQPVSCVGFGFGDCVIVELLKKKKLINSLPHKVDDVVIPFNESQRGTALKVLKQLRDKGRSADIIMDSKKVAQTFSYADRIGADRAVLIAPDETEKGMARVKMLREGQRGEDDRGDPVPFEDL

[2] = microbe, parasite or virus in culture; conditions: Mycobacterium tuberculosis, 96 h, read-out: pIC50 (converted)
[3] = microbe, parasite or virus in culture; conditions: Mycobacterium tuberculosis, 72 h, read-out: pIC50 (converted)
[4] = In vitro enzyme assay to detect hydrolysis of chlorophenol red-beta-D-[…] directly proportional to the number of Toxoplasma stably expressing beta-galactosidase; assay type: functional, organism-based, Toxoplasma gondii; conditions: for IC50: Toxoplasma gondii
Plasmodium falciparum = assay: Calibr Malaria Delayed Death Assay SOP; assay type: functional, organism-based; conditions: for IC50: Plasmodium falciparum
[5] = molecular target: T2, Coenzyme A biosynthesis bifunctional protein CoaBC (Mycobacterium tuberculosis (strain ATCC 25618 / H37Rv), UniProt P9WNZ1); assay: Biomol Green assay for MtCoaBC inhibitor, OD650 read; assay type: functional
T2 sequence (P9WNZ1 whole entry): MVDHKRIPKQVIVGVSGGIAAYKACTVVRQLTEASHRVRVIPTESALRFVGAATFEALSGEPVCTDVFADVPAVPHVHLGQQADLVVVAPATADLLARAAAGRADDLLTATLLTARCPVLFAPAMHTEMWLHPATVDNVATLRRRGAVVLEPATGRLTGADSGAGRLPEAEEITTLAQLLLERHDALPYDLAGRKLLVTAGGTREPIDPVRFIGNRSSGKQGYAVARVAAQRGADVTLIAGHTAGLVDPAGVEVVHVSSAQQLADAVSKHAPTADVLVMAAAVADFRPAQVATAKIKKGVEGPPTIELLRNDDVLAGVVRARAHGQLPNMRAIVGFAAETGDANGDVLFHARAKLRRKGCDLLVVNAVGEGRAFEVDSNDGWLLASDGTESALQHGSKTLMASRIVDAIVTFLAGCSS

Tryptophan--tRNA ligase = Tryptophan--tRNA ligase (Mycobacterium tuberculosis (strain ATCC 25618 / H37Rv), UniProt P9WFT3); assay: Biochemical assay for Mt-TrpRS; assay type: functional
Tryptophan--tRNA ligase, sequence (P9WFT3 whole entry): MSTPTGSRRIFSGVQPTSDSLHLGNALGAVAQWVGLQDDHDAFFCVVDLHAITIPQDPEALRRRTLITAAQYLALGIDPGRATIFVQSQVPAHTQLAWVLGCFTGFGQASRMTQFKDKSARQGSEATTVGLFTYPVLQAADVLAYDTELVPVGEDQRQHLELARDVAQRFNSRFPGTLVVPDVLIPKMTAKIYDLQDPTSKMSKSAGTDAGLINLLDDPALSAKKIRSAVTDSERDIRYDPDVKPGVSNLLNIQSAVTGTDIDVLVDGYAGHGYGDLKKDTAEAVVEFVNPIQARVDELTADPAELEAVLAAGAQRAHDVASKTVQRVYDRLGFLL

Leishmania donovani = assay: Leishmania intramacrophage assay; assay type: functional, organism-based; conditions: Leishmania donovani
ClpP1P2 = ClpP1P2 (Mycobacterium tuberculosis (strain ATCC 25618 / H37Rv), UniProt P9WPC3+P9WPC5); assay: in vitro assay to detect presence of AMC directly proportional to the activity of ClpP1P2. GHDDI collaboration.; assay type: functional
ClpP1P2, sequence (P9WPC5 whole entry): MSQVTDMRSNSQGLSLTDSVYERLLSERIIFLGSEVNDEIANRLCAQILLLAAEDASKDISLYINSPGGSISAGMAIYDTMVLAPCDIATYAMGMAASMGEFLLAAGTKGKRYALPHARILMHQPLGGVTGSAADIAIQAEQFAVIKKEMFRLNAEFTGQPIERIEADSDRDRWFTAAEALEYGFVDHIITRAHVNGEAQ
ClpP1P2, sequence (P9WPC3 whole entry): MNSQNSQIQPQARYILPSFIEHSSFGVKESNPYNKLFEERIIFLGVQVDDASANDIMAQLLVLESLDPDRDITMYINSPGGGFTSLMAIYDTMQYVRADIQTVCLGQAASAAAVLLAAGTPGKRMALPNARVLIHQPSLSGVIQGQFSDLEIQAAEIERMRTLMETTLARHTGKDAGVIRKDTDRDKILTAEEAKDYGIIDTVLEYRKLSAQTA

Schistosoma mansoni = assay: High throughput screening of compounds against Schistosoma mansoni motility; assay type: functional; design: dose or concentration left out as unconfirmed

Polyketide synthase Pks13, sequence (I6X8D2 whole entry): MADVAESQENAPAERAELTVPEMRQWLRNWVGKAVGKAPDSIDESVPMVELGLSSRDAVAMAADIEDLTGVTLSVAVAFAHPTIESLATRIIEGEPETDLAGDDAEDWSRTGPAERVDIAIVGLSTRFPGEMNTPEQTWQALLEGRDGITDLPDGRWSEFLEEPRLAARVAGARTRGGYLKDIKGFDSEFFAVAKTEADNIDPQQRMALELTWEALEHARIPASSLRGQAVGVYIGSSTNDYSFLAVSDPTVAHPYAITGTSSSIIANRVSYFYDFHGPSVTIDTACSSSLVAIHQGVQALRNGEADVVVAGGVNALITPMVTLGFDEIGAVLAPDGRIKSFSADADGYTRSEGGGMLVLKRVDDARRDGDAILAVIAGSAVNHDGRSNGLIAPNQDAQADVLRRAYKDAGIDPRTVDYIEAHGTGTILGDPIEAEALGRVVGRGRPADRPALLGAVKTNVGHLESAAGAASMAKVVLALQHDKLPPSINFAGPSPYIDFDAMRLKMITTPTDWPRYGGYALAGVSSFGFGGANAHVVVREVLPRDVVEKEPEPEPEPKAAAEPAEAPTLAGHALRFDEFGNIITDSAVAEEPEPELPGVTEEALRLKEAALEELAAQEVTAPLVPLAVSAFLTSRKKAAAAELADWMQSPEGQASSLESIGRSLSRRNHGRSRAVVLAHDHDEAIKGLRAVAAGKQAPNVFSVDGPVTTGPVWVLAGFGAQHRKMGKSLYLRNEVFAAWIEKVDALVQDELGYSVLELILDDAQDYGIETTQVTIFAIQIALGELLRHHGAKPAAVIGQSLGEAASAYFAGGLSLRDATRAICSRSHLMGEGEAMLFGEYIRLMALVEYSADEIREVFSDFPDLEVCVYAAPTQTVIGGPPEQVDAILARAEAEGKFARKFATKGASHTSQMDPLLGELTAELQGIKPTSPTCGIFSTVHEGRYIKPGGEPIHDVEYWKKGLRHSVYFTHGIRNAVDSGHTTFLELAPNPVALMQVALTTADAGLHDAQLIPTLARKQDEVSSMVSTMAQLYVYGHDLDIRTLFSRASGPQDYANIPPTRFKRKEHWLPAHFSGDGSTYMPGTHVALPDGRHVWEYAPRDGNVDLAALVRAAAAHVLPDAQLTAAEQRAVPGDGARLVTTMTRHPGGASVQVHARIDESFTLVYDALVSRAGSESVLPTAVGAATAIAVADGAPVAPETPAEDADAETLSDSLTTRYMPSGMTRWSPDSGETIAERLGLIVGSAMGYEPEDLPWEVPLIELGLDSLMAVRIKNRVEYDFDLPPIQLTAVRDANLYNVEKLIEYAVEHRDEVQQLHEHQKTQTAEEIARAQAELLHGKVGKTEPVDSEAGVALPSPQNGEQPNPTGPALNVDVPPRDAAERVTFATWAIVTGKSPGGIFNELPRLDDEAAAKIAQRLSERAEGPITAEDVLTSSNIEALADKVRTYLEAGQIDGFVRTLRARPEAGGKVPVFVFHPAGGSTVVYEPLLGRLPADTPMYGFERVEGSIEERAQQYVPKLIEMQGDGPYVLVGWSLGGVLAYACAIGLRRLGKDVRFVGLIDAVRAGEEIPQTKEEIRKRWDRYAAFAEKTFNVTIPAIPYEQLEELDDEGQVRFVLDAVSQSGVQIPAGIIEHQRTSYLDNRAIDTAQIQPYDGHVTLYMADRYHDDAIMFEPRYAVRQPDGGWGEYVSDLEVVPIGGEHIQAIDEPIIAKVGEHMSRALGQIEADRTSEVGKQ

SMILES | IC50 (Lysine--tRNA ligase) [µM] | IC50 (Histidine--tRNA ligase) | also measured
COc1ccc(-c2cc(C[C@@H]3C[C@H](N(C)C)C3(C)C)no2)cc1 |  |  | IC50 [1]: 41.5 µM and > 100 µM
CC1=C(C#N)C(=O)N(C)C(=O)/C1=C\C1=Cc2ccccc2OC1 | > 50.1 | 1.12 µM and 1.35 µM and 1.76 µM and 1.15 µM | 
CCc1ccc(S(=O)(=O)NCC2CCN(c3cnccn3)CC2)s1 |  |  | IC50 [1]: 18.4 µM and 29.5 µM
CC(C)CN1C[C@H]2CCN(C(=O)C3CCCO3)CC[C@H]2S1(=O)=O (stereo partly drawn) | > 50.1 |  | IC50 [2]: > 50.1 µM; IC50 [3]: > 50.1 µM
COC(=O)c1ccc(OC)c(Cn2cc(N)cn2)c1 | > 50.1 | 56.4 µM and 66 µM | 
CCc1ccc(-c2cc(C(F)(F)F)nc(N3CCC(N)CC3)n2)cc1 | > 50.1 | 26.9 µM and 24.6 µM | pIC50 [4]: 5.409; IC50 [4]: 2.22 µM; pIC50 (Plasmodium falciparum): 5.997; IC50 (Plasmodium falciparum): 1.03 µM; IC50 [2]: 15.3 µM; IC50 [3]: 13 µM
O=C(c1ccc2c(c1)CCCC2)N1CCn2ncnc2C1 | > 50.1 |  | IC50 [5]: > 30.2 µM
O=C(Cc1ccc(F)cc1)N1CCCC(c2n[nH]c3nccnc23)C1 (stereo not drawn) | > 50.1 |  | IC50 (Tryptophan--tRNA ligase): > 195 µM
CC(C)NC(=O)N1CCC(c2nnc3n2CCNC3)CC1 | > 50.1 | 14.9 µM and 14.8 µM | 
Cn1nc2c(cc1=O)CN(CC1CCCCO1)CC2 (stereo not drawn) | > 50.1 | 23.7 µM and 25 µM | 
Cc1noc(C(C)Nc2ccc3oc(C)nc3c2)n1 (stereo not drawn) | > 50.1 | 23.9 µM and 20.4 µM | 
Cc1noc(C(C)Nc2ccc3oc(C(C)C)nc3c2)n1 (stereo not drawn) | > 50.1 | 34.3 µM and 43.8 µM | 
Cc1nnc(N2CCc3cncnc3C2)c(C#N)c1C | > 50.1 | 21.4 µM and 27.5 µM | 
Cn1nc2c(cc1=O)CN(c1ncnc3sccc13)CC2 | > 50.1 | 6.32 µM and 5.55 µM | IC50 [5]: > 30.2 µM; IC50 [4]: 9.58 µM
CCCn1nc2c(cc1=O)CN(c1ncnc3ccsc13)CC2 | > 50.1 | 43.5 µM and 33.5 µM | 
Cc1nnc(NCC(c2ccco2)N2CCCC2)c(C#N)c1C (stereo not drawn) | > 50.1 | 27.1 µM and 17.8 µM | 
COc1ccc(N)c(N2CCN(C(C)=O)CC2)n1 | > 50.1 | 16.5 µM and 15.6 µM | 
CC(C(=O)Nc1ccc(Cl)cn1)N1CCc2nn(C)c(=O)cc2C1 (stereo not drawn) | > 50.1 | 19.9 µM and 23 µM | 
COc1ncc(C)cc1NC(=O)COCC(F)(F)F | > 50.1 | 25.3 µM and 19.4 µM | 

SMILES | IC50 (Lysine--tRNA ligase) [µM] | IC50 (Histidine--tRNA ligase) | also measured
Cn1cc(Br)cc(NC(=O)CC(C)(C)C)c1=O | > 50.1 | 13.9 µM and 12 µM | 
Cn1cc(Br)cc(NC(=O)CC2CCC2)c1=O | > 50.1 | > 100 µM | 
COCCn1cc(NC(=O)NC(C)CCc2ccccc2)ccc1=O (stereo not drawn) | > 50.1 | 3.09 µM and 3.5 µM | 
Cc1cc(=O)n(C)cc1NC(=O)CC1CCC1 | > 50.1 | 7.56 µM and 7.2 µM | 
COCCn1cc(NC(=O)C(C)CCc2ccccc2F)ccc1=O (stereo not drawn) | > 50.1 | 3.96 µM and 4.01 µM | 
Cn1nc2c(cc1=O)CN(c1ncnc3ccsc13)CC2 | > 50.1 | 14.1 µM and 17.4 µM | IC50 [4]: 6.44 µM
Oc1ccc(N(CCc2ccccc2)CCn2cncn2)cc1 | > 50.1 | 39.6 µM and 56.7 µM | 
CN(Cc1ccco1)C(=O)Nc1ccc(=O)n(C)c1 | > 50.1 | 11.6 µM and 9.89 µM | 
Cc1occc1CN(C)C(=O)Nc1ccc(=O)n(C)c1 | > 50.1 | 9.57 µM and 9.94 µM | 
COc1ccsc1C(=O)Nc1cc(Cl)c(=O)n(C)c1 | > 50.1 | 12.3 µM and 10.6 µM | IC50 [5]: > 30.2 µM
COc1cc(F)c(S(=O)(=O)Nc2cnc(O)cc2C)cc1OC | > 50.1 | 16.2 µM and 17.5 µM | 
COCCn1cc(NCc2cn(C)nc2-c2ccncc2)cn1 | > 50.1 | 47.4 µM and 46.6 µM | 
Cn1cccc(NC(=O)N2CCC(Cc3ccccc3)C2)c1=O (stereo not drawn) | > 50.1 | 9.56 µM and 6.68 µM | 
Cn1cccc(NC(=O)N2CCC(COCc3ccccc3)C2)c1=O (stereo not drawn) | > 50.1 | 3.47 µM and 4.31 µM | 
Cn1cnnc1C1CCN(c2cncc(-n3cccn3)n2)CC1 | > 50.1 |  | IC50 (Leishmania donovani): > 50.1 µM; IC50 (ClpP1P2): > 100 µM
COCCN(Cc1ccc(F)cc1Cl)C(=O)c1ccc(=O)[nH]n1 | > 50.1 |  | Percent Effect (Schistosoma mansoni): -14.07%
CC(NC(=O)C1=NN(C)C(=O)CC1)c1ccc(Cl)cc1Cl (stereo not drawn) | > 50.1 |  | Percent Effect (Schistosoma mansoni): -38.06%
COCCc1ncc(-c2c(C#N)c(N)nc3c2CCc2[nH]ccc2-3)cn1 | > 50.1 | 6.54 µM and 5.62 µM | 
Cc1nc(CN2CCCC(CCc3cccc(C(F)(F)F)c3)C2)co1 (stereo not drawn) | > 50.1 |  | IC50 [2]: 41.8 µM; IC50 [3]: 33.3 µM

SMILES | IC50 (Lysine--tRNA ligase) [µM] | IC50 (Histidine--tRNA ligase) | also measured
CCC(Cn1ccc2[nH]c(=O)c(C#N)cc2c1=O)OC (stereo not drawn) | > 50.1 |  | IC50 (ClpP1P2): > 100 µM
CC(O)CCn1ccc2[nH]c(=O)c(C#N)cc2c1=O (stereo not drawn) | > 50.1 |  | IC50 (ClpP1P2): > 100 µM
Nc1nc(CC(=O)N2CCCC(CCc3cccc(F)c3)C2)cc(=O)[nH]1 (stereo not drawn) | > 50.1 | 13.8 µM and 10 µM | 
CCn1cc(CNc2ccc3nccnc3c2)cn1 | > 50.1 | 9.36 µM and 8.25 µM | 
CCCOCC1CCN(C(=O)Cn2cccc(OC)c2=O)C1 (stereo not drawn) | > 50.1 | 2.01 µM and 1.03 µM and 2.08 µM and 1.01 µM | 
CCOCC1CCN(C(=O)C(c2ccccc2F)N(C)C)CC1 (stereo not drawn) | > 50.1 |  | IC50 [5]: > 30.2 µM; IC50 [2]: > 50.1 µM; IC50 [3]: > 50.1 µM
N#Cc1cc2c(=O)n(CC(O)C(F)(F)F)ccc2[nH]c1=O (stereo not drawn) | > 50.1 |  | IC50 (ClpP1P2): > 100 µM
COc1ncc(-c2c(C#N)c(N)nc3c2CCc2[nH]ccc2-3)cn1 | > 50.1 | 8.08 µM and 5.62 µM | 
COc1cccc(C(=O)N(C)Cc2ncc(C)c(OC)c2C)c1OC | > 50.1 |  | 
Cc1nc(NC(=O)CN2CCOC(Cn3cccn3)C2)sc1C (stereo not drawn) | > 50.1 |  | 
Cc1nnc(NC(=O)CN2CCOC(Cn3cccn3)C2)s1 (stereo not drawn) | > 50.1 |  | 
Cc1nn(C)c(C)c1NC(=O)CN1CCOC(Cn2cccn2)C1 (stereo not drawn) | > 50.1 |  | 
Cc1ccc(S(=O)(=O)Nc2ccc(=O)n(C)c2)cc1 | > 50.1 | 24.8 µM and 32.1 µM | IC50 (Leishmania donovani): > 50.1 µM
CC(C)Cc1ccc(S(=O)(=O)Nc2ccc(=O)n(C)c2)cc1 | > 50.1 | 12.5 µM and 18.7 µM | 
COCCCN1CCc2cncnc2C1 | > 50.1 | 29.5 µM and 38.3 µM | 
Cc1cccc(-c2noc(CN3CCc4nn(C)c(=O)cc4C3)n2)c1 | > 50.1 | 9.38 µM and 11.6 µM | 
CCCn1nc2c(cc1=O)CN(CCCS(N)(=O)=O)CC2 | > 50.1 | 31.6 µM and 50.9 µM | 
Fc1ccc(C2(CNC3=NCCN3)CCCC2)cc1.I | > 50.1 |  | pIC50 (Plasmodium falciparum): 6.191; IC50 (Plasmodium falciparum): 0.629 µM
